Measurements reported in patent US20240174690A1, “ANNULATED 2-AMINO-3-CYANO THIOPHENES AND DERIVATIVES FOR THE TREATMENT OF CANCER” (BOEHRINGER INGELHEIM INTERNATIONAL GMBH, priority 2021, published 2024).
≈ marks a conversion by molar mass, not a printed value. Read-outs that look alike come from different tables or passages of the source.

Tests used:
[1] = system: SAS cells; experiment: SAS CTG proliferation assay (120 h) (HNSCC, wt amplified); type: cell-based
How it was run: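 SAS cells plated at 300 per well in DMEM:F12 with 10% FCS and left overnight, then given compounds acoustically. After 120 h exposure, viability read by CellTiter-Glo as percent of DMSO control. IC50 from four-parameter non-linear regression.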

[2] = Plasma protein binding assay (PPB), equilibrium dialysis, 10% FCS in PBS; type: in vitro ADME; settings: bovine, read-out: PPB 10% FCS (% fu)
How it was run: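 Equilibrium dialysis (5-10 kg/mol cut-off membrane) of 1-10 μmol/L test compound in 10% FCS/PBS against PBS with or without dextran, 3-5 h at 37° C. Compound in each chamber quantified by LC-MS after protein precipitation; fu calculated from Cserum and Cbuffer.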

[3] = system: AsPC-1 cells; experiment: AsPC-1 CTG proliferation assay (120 h) (pancreatic cancer, G12D); type: cell-based; settings: Homo sapiens, ASPC1
How it was run: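 AsPC-1 cells (KRAS G12D), 2000/well in RPMI with 10% FCS, seeded overnight, then treated with compound for 120 h at 37 °C. Viability by CellTiter-Glo luminescence as percent of DMSO control. IC50 from a four-parameter non-linear fit.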

[4] = system: NCI-H358 cells; experiment: NCI-H358 CTG proliferation assay (120 h) (NSCLC, G12C); type: cell-based, human; settings: Homo sapiens, assay 2, CTG, read-out: H358 (assay 2) IC50
How it was run: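 NCI-H358 cells (KRAS G12C) were seeded at 2000/well (assay 1) or 200/well (assay 2) in RPMI-1640 + 10% FCS and dosed with a logarithmic series, DMSO-normalized. After 120 h, viability was read by CellTiter-Glo luminescence as percent of DMSO control, with a T0 read at dosing. IC50 came from a four-parameter fit.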

[5] = Solubility measurement (DMSO solution method), McIlvaine buffer pH 4.5 or 6.8; type: physicochemical; settings: aqueous buffer, kinetic from dmso stock, DMSO stock diluted to 250 μM, 24 h shaking at ambient temperature
How it was run: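 DMSO stock diluted into McIlvaine buffer, pH 4.5 or 6.8, to 250 µM final, shaken 24 h at ambient temperature. Precipitate removed by filtration; filtrate quantified by LC-UV against a fully dissolved reference in acetonitrile/water 1:1.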

[6] = McIlvaine buffer pH 4.5, read-out: solubility pH 4.5
[7] = McIlvaine buffer pH 6.8, read-out: solubility pH 6.8

SMILES	IC50 [1] [nM]	fraction unbound [2]	IC50 [3] [nM]	IC50 [4] [nM]	solubility at 24 h [5, 6] [µg/mL]	solubility at 24 h [5, 7] [µg/mL]
C[C@H](Oc1cc(N2CCNC[C@]23CCOC3)nc(-c2onc3c2CCC[C@@]32CCCc3sc(N)c(C#N)c32)n1)[C@@H]1CCCN1C [I-12]	218	0.46	235	3120	> 152	125 (≈ 198 µM)
C[C@H](Oc1cc(N2CCNC[C@@]23CCOC3)nc(-c2onc3c2CCC[C@@]32CCCc3sc(N)c(C#N)c32)n1)[C@@H]1CCCN1C [I-13]	294	0.21	1550	4280	> 148	> 150
C[C@H](Oc1cc(-n2cncc3ccnc2-3)nc(-c2onc3c2CCC[C@@]32CCCc3sc(N)c(C#N)c32)n1)[C@@H]1CCCN1C [I-14]	25	0.1	3410		41 (≈ 67.5 µM)	< 1
C[C@H]1CNCCCN1c1nc(-c2onc3c2CCC[C@@]32CCCc3sc(N)c(C#N)c32)cc(C(F)(F)F)n1 [I-15]		0.08			1 (≈ 1.84 µM)	< 1
C[C@H](Oc1cc(-c2cn(C)nn2)nc(-c2onc3c2CCC[C@@]32CCCc3sc(N)c(C#N)c32)n1)[C@@H]1CCCN1C [I-16]	77	0.55		204	> 118	82 (≈ 143 µM)
CO[C@@H]1C[C@@H]([C@H](C)Oc2cc(-c3cnn(C)n3)nc(-c3onc4c3CCC[C@@]43CCCc4sc(N)c(C#N)c43)n2)N(C)C1 [I-17]	241	0.24	9850			
C[C@H](Oc1cc(-n2cncn2)nc(-c2onc3c2CCC[C@@]32CCCc3sc(N)c(C#N)c32)n1)[C@@H]1CCCN1C [I-18]	72	0.61	7070	179	> 121	91 (≈ 163 µM)
C[C@H](Oc1cc(N2Cc3cnn(C)c3C2)nc(-c2onc3c2CCC[C@@]32CCCc3sc(N)c(C#N)c32)n1)[C@@H]1CCCN1C [I-19]	217	0.48	3000	2160	48 (≈ 78.5 µM)	14 (≈ 22.9 µM)
C[C@H](Oc1cc(-n2cc(-c3cncs3)nn2)nc(-c2noc3c2CCC[C@@]32CCCc3sc(N)c(C#N)c32)n1)[C@@H]1CCCN1C [II-125]	182	0.13	1370	255	< 1	< 1
C[C@H](Oc1cc(-n2nccc2-c2ccncc2)nc(-c2noc3c2CCC[C@@]32CCCc3sc(N)c(C#N)c32)n1)[C@@H]1CCCN1C [II-131]	623	0.01	3520	277		
C[C@H](O)Cn1ncc(-c2cc(O[C@@H](C)[C@@H]3CCCN3C)nc(-c3noc4c3CCC[C@@]43CCCc4sc(N)c(C#N)c43)n2)n1 [II-134]	35	0.31	9670		116 (≈ 188 µM)	105 (≈ 171 µM)
C[C@H]1CNCCCN1c1cc(-c2ccn(C)n2)nc(-c2noc3c2CCC[C@@]32CCCc3sc(N)c(C#N)c32)n1 [II-140]	128		21600	702	82 (≈ 148 µM)	8 (≈ 14.4 µM)
C[C@H](Oc1cc(-n2cc3c(n2)CCN(C)C3)nc(-c2noc3c2CCC[C@@]32CCCc3sc(N)c(C#N)c32)n1)[C@@H]1CCCN1C [II-141]	873	0.6	244		123 (≈ 197 µM)	83 (≈ 133 µM)
C[C@H]1CNCCCN1c1cc(-n2ccnc2)nc(-c2noc3c2CCC[C@@]32CCCc3sc(N)c(C#N)c32)n1 [II-142]	6110		10100	10800	86 (≈ 159 µM)	10 (≈ 18.5 µM)
C[C@H](Oc1cc(-c2ccn(C)n2)nc(-c2noc3c2CCC[C@@]32CCCc3sc(N)c(C#N)c32)n1)[C@@H]1C[C@H](F)CN1C [II-144]	302	0.11	7100		105 (≈ 178 µM)	< 1
C[C@H](Oc1cc(N2CCN(C)C3(COC3)C2)nc(-c2noc3c2CCC[C@@]32CCCc3sc(N)c(C#N)c32)n1)[C@@H]1C[C@@H](F)CN1C [II-148]	421	0.25	376		> 146	< 1

SMILES	IC50 [1] [nM]	fraction unbound [2]	IC50 [3] [nM]	IC50 [4] [nM]	solubility at 24 h [5, 6] [µg/mL]	solubility at 24 h [5, 7] [µg/mL]
C[C@H](Oc1cc(N2CCN(C)C3(CC3)C2)nc(-c2noc3c2CCC[C@@]32CCCc3sc(N)c(C#N)c32)n1)[C@@H]1C[C@@H](F)CN1C [II-149]	849	0.17	257		> 164	< 1
C[C@H](Oc1cc(N2CCN(C)C3(CCOC3)C2)nc(-c2noc3c2CCC[C@@]32CCCc3sc(N)c(C#N)c32)n1)[C@@H]1C[C@@H](F)CN1C (some centres unmarked) [II-151]	161	0.24	714		> 161	< 1
C[C@H](Oc1cc(N2CC3COCC(C2)N3)nc(-c2noc3c2CCC[C@@]32CCCc3sc(N)c(C#N)c32)n1)[C@@H]1CCCN1C [II-160]	821	0.53	3220			
C[C@@H]1CN(c2cc(O[C@@H](C)[C@@H]3CCCN3C)nc(-c3noc4c3CCC[C@@]43CCCc4sc(N)c(C#N)c43)n2)CCN1 [II-161]	1580	0.37	1600			
C[C@H](Oc1cc(N2CCN[C@@H](C)C2)nc(-c2noc3c2CCC[C@@]32CCCc3sc(N)c(C#N)c32)n1)[C@@H]1CCCN1C [II-162]	2120	0.69	922		> 140	> 137
C[C@H](Oc1cc([C@H]2CCNC2)nc(-c2noc3c2CCC[C@@]32CCCc3sc(N)c(C#N)c32)n1)[C@@H]1CCCN1C [II-163]	274	0.61	935		> 137	> 133
CC(C)[C@@H]1CN(c2cc(O[C@@H](C)[C@@H]3CCCN3C)nc(-c3noc4c3CCC[C@@]43CCCc4sc(N)c(C#N)c43)n2)CCN1 [II-166]	1180	0.22	1280		> 152	> 147
C[C@H](Oc1cc(N2C[C@@H]3[C@@H](N)[C@@H]3C2)nc(-c2noc3c2CCC[C@@]32CCCc3sc(N)c(C#N)c32)n1)[C@@H]1CCCN1C [II-167]	1390	0.26	4230		> 153	> 142
C[C@H](Oc1cc(-n2cc3c(n2)CNC3)nc(-c2noc3c2CCC[C@@]32CCCc3sc(N)c(C#N)c32)n1)[C@@H]1CCCN1C [II-168]	441	0.47	778		> 139	> 128
CC(C)N1CCCN(c2cc(-n3ccnc3)nc(-c3noc4c3CCC[C@@]43CCCc4sc(N)c(C#N)c43)n2)[C@@H](C)C1 [II-169]	4410		3730	595	> 124	13 (≈ 22.3 µM)
C[C@H](Oc1cc(N2CCN(C)C3(CC3)C2)nc(-c2noc3c2CCC[C@@]32CCCc3sc(N)c(C#N)c32)n1)[C@@H]1CCCN1C [II-171]	1100	0.23	295		> 150	> 148
C[C@H](Oc1cc(N2C[C@H](C)N(C)[C@@H](C)C2)nc(-c2noc3c2CCC[C@@]32CCCc3sc(N)c(C#N)c32)n1)[C@@H]1CCCN1C [II-173]	751	0.41	1210		> 144	> 146
CO[C@H]1CCN(C)[C@@H]1[C@H](C)Oc1cc(-n2ccc(CC(=O)NC(C)C)n2)nc(-c2noc3c2CCC[C@@]32CCCc3sc(N)c(C#N)c32)n1 [II-183]	6	0.04	162		113 (≈ 165 µM)	4 (≈ 5.83 µM)
C[C@H](Oc1cc(-n2cc3ccn([C@@H](C)c4ccccn4)c(=O)c3n2)nc(-c2noc3c2CCC[C@@]32CCCc3sc(N)c(C#N)c32)n1)[C@@H]1CCCN1C [II-205]	20	0.06	1310	18		
CNC1CCN(c2cc(O[C@@H](C)[C@@H]3CCCN3C)nc(-c3noc4c3CCC[C@@]43CCCc4sc(N)c(C#N)c43)n2)CC1 [II-214]		0.81	3520		> 121	> 151
